According to ChEMBL document CHEMBL6153048, “Synthesis and pharmacological evaluation of natural product diphyllin derivatives against head and neck squamous cell carcinoma” (Eur J Med Chem, 2025):

How the values were obtained:
[1] = Antiproliferative activity against human WSU HN-30 cells assessed as inhibition rate at 0.1 uM incubated for 72 hrs by MTT assay relative to control; type: functional; details: WSU-HN30
[2] = Antiproliferative activity against human HN-6 cells assessed as inhibition rate at 0.1 uM incubated for 72 hrs by MTT assay relative to control; type: functional
[3] = Antiproliferative activity against human L02 cells assessed as inhibition rate at 0.1 uM incubated for 72 hrs by MTT assay relative to control; type: toxicity, cell-based
SCC-25 [4] = experiment: Antiproliferative activity against human SCC-25 cells assessed as inhibition rate at 0.1 uM incubated for 72 hrs by MTT assay relative to control; type: functional
SCC-9 [5] = experiment: Antiproliferative activity against human SCC-9 cells assessed as inhibition rate at 0.1 uM incubated for 72 hrs by MTT assay relative to control; type: functional
CAL-27 [6] = experiment: Antiproliferative activity against human CAL-27 cells assessed as inhibition rate at 0.1 uM incubated for 72 hrs by MTT assay relative to control; type: functional
CAL-27 [7] = experiment: Cytotoxicity against human CAL-27 cells incubated for 72 hrs by MTT assay; type: functional, cell-based; details: CAL-27, 72 h
SCC-9 [8] = experiment: Cytotoxicity against human SCC-9 cells incubated for 72 hrs by MTT assay; type: functional, cell-based; details: SCC-9, 72 h
[9] = Cytotoxicity against human L02 cells incubated for 72 hrs by MTT assay; type: toxicity, cell-based
[10] = Cytotoxicity against human […] incubated for 72 hrs by MTT assay; type: functional, cell-based; details: WSU-HN30, 72 h
SCC-25 [11] = experiment: Cytotoxicity against human SCC-25 cells incubated for 72 hrs by MTT assay; type: functional, cell-based; details: SCC-25, 72 h
[12] = Cytotoxicity against human HN-6 cells incubated for 72 hrs by MTT assay; type: functional, cell-based; details: HN-6, 72 h

Structure (SMILES) | inhibition at 0.1 µM [1] [%] | inhibition at 0.1 µM [2] [%] | inhibition at 72 h, 0.1 µM [3] [%] | inhibition at 0.1 µM (SCC-25 [4]) [%] | inhibition at 0.1 µM (SCC-9 [5]) [%] | inhibition at 0.1 µM (CAL-27 [6]) [%] | IC50 (CAL-27 [7]) [nM] | IC50 (SCC-9 [8]) [nM] | IC50 at 72 h [9] [µM] | IC50 [10] [nM] | IC50 (SCC-25 [11]) [nM] | IC50 [12] [nM]
COc1cc2c(OCCOCCNC(=O)C(F)(F)[C@]3(O)O[C@H](CO)[C@@H](O)[C@H](O)[C@H]3O)c3c(c(-c4ccc5c(c4)OCO5)c2cc1OC)C(=O)OC3 | 8.25 | 4.3 | 1.74 | 10.2 | 13.9 | 1.73 |  |  |  |  |  | 
COc1cc2c(OCCOCCNC(=O)CON)c3c(c(-c4ccc5c(c4)OCO5)c2cc1OC)C(=O)OC3 | 23.5 | 18.7 | 9.46 | 31.8 | 18.7 | 33 |  |  |  |  |  | 
COc1cc2c(OCCOCCNC(=O)C3=C[C@H](O)[C@H](O)[C@@H](O)C3)c3c(c(-c4ccc5c(c4)OCO5)c2cc1OC)C(=O)OC3 | 16.2 | 27.2 | 5.67 | 31.4 | 22.2 | 31.1 |  |  |  |  |  | 
COc1cc2c(O[C@@H]3O[C@@H]4CO[C@@H](c5ccc(C)s5)O[C@H]4[C@H](O)[C@H]3O)c3c(c(-c4ccc5c(c4)OCO5)c2cc1OC)C(=O)OC3 | 40.1 | 57.2 | 9.5 | 41 | 46.2 | 32.4 |  |  |  |  |  | 
COc1cc2c(NC(=O)C(F)(F)[C@]3(O)O[C@H](CO)[C@@H](O)[C@H](O)[C@H]3O)c3c(c(-c4ccc5c(c4)OCO5)c2cc1OC)C(=O)OC3 | 12.3 | 13.1 | 4.58 | 28.2 | 19.4 | 27.6 |  |  |  |  |  | 
COc1cc2c(OCCOCCNC(=O)[C@H]3[C@@H]4CNC[C@@H]43)c3c(c(-c4ccc5c(c4)OCO5)c2cc1OC)C(=O)OC3 | 6.67 | 7.38 | 3.53 | 14.7 | 17.5 | 2.26 |  |  |  |  |  | 
COc1cc2c(O[C@@H]3O[C@@H]4CO[C@@H](C5CCCC5)O[C@H]4[C@H](O)[C@H]3O)c3c(c(-c4ccc5c(c4)OCO5)c2cc1OC)C(=O)OC3 | 40.5 | 54.2 | 9.37 | 49.1 | 42 | 8.02 |  |  |  |  |  | 
COc1cc2c(OCCOCCNC(=O)C3CNCC(F)(F)C3)c3c(c(-c4ccc5c(c4)OCO5)c2cc1OC)C(=O)OC3 (centres undefined) | 11.7 | 10.2 | 10.6 | 23.2 | 25.6 | 2.03 |  |  |  |  |  | 
COc1cc2c(OCCOCCN)c3c(c(-c4ccc5c(c4)OCO5)c2cc1OC)C(=O)OC3 | 34.2 | 50.8 | 18.3 | 28.9 | 34.9 | 45.6 | 101 | 135 | > 10 | 144 | 85 | 185
COc1cc2c(O[C@@H]3O[C@@H]4CO[C@@H](C5CCOCC5)O[C@H]4[C@H](O)[C@H]3O)c3c(c(-c4ccc5c(c4)OCO5)c2cc1OC)C(=O)OC3 | 28.9 | 58.9 | 6.66 | 24.6 | 35.4 | 35.5 |  |  |  |  |  | 
COc1cc2c(OCCOCCNC(=O)[C@@H]3CCC(=O)N3)c3c(c(-c4ccc5c(c4)OCO5)c2cc1OC)C(=O)OC3 | 15.9 | 19.8 | 6.04 | 18.5 | 8.65 | 29.5 |  |  |  |  |  | 
CCC(CC)[C@@H]1OC[C@H]2O[C@@H](Oc3c4c(c(-c5ccc6c(c5)OCO6)c5cc(OC)c(OC)cc35)C(=O)OC4)[C@H](O)[C@@H](O)[C@@H]2O1 | 38.3 | 55.1 | 8.83 | 44.9 | 43.2 | 24.3 |  |  |  |  |  | 
COc1cc2c(O[C@@H]3O[C@@H]4CO[C@@H](c5csc(Br)c5)O[C@H]4[C@H](O)[C@H]3O)c3c(c(-c4ccc5c(c4)OCO5)c2cc1OC)C(=O)OC3 | 49.9 | 57.6 | 20.8 | 58.4 | 72.3 | 78.3 | 14.5 | 16.4 | 3.68 | 7.33 | 86.4 | 6.07
COc1cc2c(O[C@@H]3O[C@@H]4CO[C@@H](c5ccc(SC)cc5)O[C@H]4[C@H](O)[C@H]3O)c3c(c(-c4ccc5c(c4)OCO5)c2cc1OC)C(=O)OC3 | 47.4 | 57.1 | 6.84 | 35.4 | 41.1 | 35.9 |  |  |  |  |  | 
COc1cc2c(O[C@@H]3O[C@@H]4CO[C@@H](C5CCCCC5)O[C@H]4[C@H](O)[C@H]3O)c3c(c(-c4ccc5c(c4)OCO5)c2cc1OC)C(=O)OC3 | 40.6 | 62.1 | 11.5 | 47.4 | 46.6 | 50.5 | 11.6 | 29.7 | 4.67 | 35.2 | 15.2 | 14.8
COc1cc2c(OCCOCCNC(=O)C3(F)CNC3)c3c(c(-c4ccc5c(c4)OCO5)c2cc1OC)C(=O)OC3 | 10.7 | 10.8 | 3.51 | 19.5 | 32.6 | 9.95 |  |  |  |  |  | 
COc1cc2c(OCCN)c3c(c(-c4ccc5c(c4)OCO5)c2cc1OC)C(=O)OC3 | 18.9 | 28.2 | 7.89 | 10.8 | 30.4 | 6.31 |  |  |  |  |  | 
COc1cc([C@@H]2c3cc4c(cc3[C@@H](O[C@@H]3O[C@@H]5CO[C@@H](C)O[C@H]5[C@H](O)[C@H]3O)[C@H]3COC(=O)[C@H]23)OCO4)cc(OC)c1O [ETOPOSIDE] |  |  |  |  |  |  | 7490 | 3700 | > 10 | 1700 | 693 | > 10000
COc1cc2c(O[C@@H]3O[C@@H]4CO[C@@H](c5cccs5)O[C@H]4[C@H](O)[C@H]3O)c3c(c(-c4ccc5c(c4)OCO5)c2cc1OC)C(=O)OC3 | 41.3 | 56.3 | 7.19 | 52.5 | 54 | 50.7 | 18.1 | 31.5 | > 10 | 120 | 9.34 | 68.1
COc1cc2c(O[C@@H]3O[C@@H]4CO[C@@H](c5cccc(C(F)(F)F)c5)O[C@H]4[C@H](O)[C@H]3O)c3c(c(-c4ccc5c(c4)OCO5)c2cc1OC)C(=O)OC3 | 40.9 | 60.6 | 9.53 | 33.6 | 37.5 | 37.4 |  |  |  |  |  | 
COc1cc2c(OCCOCCNC(=O)[C@@H]3CC(F)(F)CN3)c3c(c(-c4ccc5c(c4)OCO5)c2cc1OC)C(=O)OC3 | 19.9 | 22.3 | 8.13 | 41.7 | 35.3 | 2.62 |  |  |  |  |  | 
COc1cc2c(NC(=O)C(F)(F)[C@]3(OCc4ccccc4)O[C@H](COCc4ccccc4)[C@@H](OCc4ccccc4)[C@H](OCc4ccccc4)[C@H]3OCc3ccccc3)c3c(c(-c4ccc5c(c4)OCO5)c2cc1OC)C(=O)OC3 | 8.5 | 12.7 | 3.29 | 17.8 | 14.7 | 26.1 |  |  |  |  |  | 
COc1cc2c(NC(=O)C(F)(F)[C@]3(O)O[C@@H]4CO[C@@H](c5ccsc5)O[C@H]4[C@H](O)[C@H]3O)c3c(c(-c4ccc5c(c4)OCO5)c2cc1OC)C(=O)OC3 | 14 | 14.5 | 3.32 | 23.6 | 16.6 | 25.8 |  |  |  |  |  | 
COc1cc2c(OCCOCCOCCN)c3c(c(-c4ccc5c(c4)OCO5)c2cc1OC)C(=O)OC3 | 25.2 | 29.5 | 18.2 | 51.1 | 31.5 | 67.2 | 40.6 | 130 | 7.87 | 123 | 92.6 | 94.6
